The target of the test is T1, CvnA8 (Streptomyces coelicolor, UniProt Q9KYJ8, H183A).
T1 construct: truncated, two N-terminal transmembrane helices removed; printed as 'nucleotides 55–518' (probably residues 55-518); N-terminal 3x Strep tag kept; E. coli BL21(DE3); Strep-Tactin XT and SEC
Briefly: Kinase-Glo Plus luminescence ATP consumption, Michaelis-Menten fit. The format is biochemical. The settings on record: 1.5 µM CvnA8 H183A, 25 mM Tris pH 8.0, 150 mM NaCl, 100 mM MgCl2, 37 °C; 0-300 µM ATP.

T1 sequence (Q9KYJ8 entry or part of it H183A): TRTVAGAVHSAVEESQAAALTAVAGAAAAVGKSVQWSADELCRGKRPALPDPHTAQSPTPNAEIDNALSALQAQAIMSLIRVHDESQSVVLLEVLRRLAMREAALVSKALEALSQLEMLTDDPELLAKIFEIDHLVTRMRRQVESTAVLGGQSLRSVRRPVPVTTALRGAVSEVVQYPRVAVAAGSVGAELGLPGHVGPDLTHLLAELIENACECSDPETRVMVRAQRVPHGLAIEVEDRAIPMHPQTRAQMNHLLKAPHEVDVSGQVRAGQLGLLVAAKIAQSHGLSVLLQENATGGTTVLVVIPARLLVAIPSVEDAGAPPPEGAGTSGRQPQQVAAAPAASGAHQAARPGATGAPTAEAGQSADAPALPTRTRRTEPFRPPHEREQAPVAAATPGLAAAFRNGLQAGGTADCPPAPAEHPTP

Turning to `Nc1ncnc2c1ncn2[C@@H]1O[C@H](COP(=O)(O)OP(=O)(O)OP(=O)(O)O)[C@@H](O)[C@H]1O` [ATP], the “Kinase-Glo Plus luminescence ATP consumption, Michaelis-Menten fit” value was “drastically reduced in the H183A mutant, which prohibited the calculation of a nominal kcat”.

The values are drawn from publication PMC13343842, “The accessory protein CvnF8 modulates histidine kinase activity in an actinobacterial G protein system in Streptomyces coelicolor” (mBio, 2026).
